This is an account of results in patent US8211631B2, “In vitro model of spinal muscular atrophy” (Wisconsin Alumni Research Foundation, priority 2008, dated 2012).

Entries after “also recorded” stand apart in the source; their conditions may differ.

Common to all, as to type: cell-based, human
The subject of one assay is iPS-WT cells. Kind of assay: Nuclear gem localization (SMN immunostaining) in iPS-WT-derived neurons and astrocytes after drug treatment. The note with it: 1 mM valproic acid or tobramycin; 2 days of drug treatment. The method, then:
(§1) Immunocytochemistry. Cells were fixed in 4% paraformaldehyde or 1:1 acetone/methanol for 20 min at room temperature and rinsed with PBS. Nonspecific labeling was blocked and the cells were permeabilized with 5% normal goat serum and/or 5% normal donkey serum containing 0.2% Triton X-100 in PBS for 30 min at room temperature. Cells were rinsed with PBS and then incubated with primary antibodies for 1 h at room temperature or overnight at 4° C. Cells were then labeled with the appropriate fluorescently tagged secondary antibodies. Hoechst nuclear dye was used to label nuclei. Gems were counted in 100 nuclei, and positively stained neurons were counted and measured on five areas on each of three coverslips using Metamorph software. All data were analyzed using Prizm statistical software.
(§2) Finally, we assessed whether SMN-inducing compounds could increase SMN levels in the iPS-SMA cellular context because this would be an important proof-of-principle for the further development of drug screens. […] We are at present assessing gem formation in differentiating motor neurons and have shown that they can indeed be detected (FIG. 14A, B).

In assay [1] the test system is SMN protein in iPS-SMA cells. Kind of assay: Western blot analysis of SMN protein in drug-treated iPS-SMA cells. The note with it: corrected to beta-actin, two days after drug treatment, 1 mM valproic acid or tobramycin, n=3. The method, then:
Protein isolation and western blot analysis. Cells were isolated, suspended in 1% Triton X-100 lysis buffer supplemented with 1% protease inhibitor cocktail (Sigma), triturated and centrifuged at 16,060 g for 10 min at 4° C. Ten to twenty micrograms of protein was separated on 12% SDS-polyacrylamide gel, transferred to a nitrocellulose membrane and probed with a primary antibody against SMN (mouse monoclonal), followed by a horseradish-peroxidase-conjugated secondary antibody (Promega), and then visualized using ECL chemiluminescence (Amersham). As a control, the membrane was stripped and re-probed for beta-actin. For semiquantitative analysis, SMN signal intensity was analyzed and corrected with respect to beta-actin.
as §2, with “screens. SMN protein is found in both the cytoplasm and nuclear aggregate structures called gems, and the number of gems present is inversely correlated to disease severity (Coovert, D. D. et al. The survival motor neuron protein in spinal muscular atrophy, Hum. Mol. Genet. 6, 1205-1214, 1997).” for “screens.”
(In western blotting, separated proteins are transferred to a membrane and probed.)

The next assay concerns iPS-SMA cells. Kind of assay: Nuclear gem localization (SMN immunostaining) in iPS-SMA-derived neurons and astrocytes after drug treatment. The note with it: 1 mM valproic acid or tobramycin; 2 days of drug treatment; gems counted in 100 nuclei; P<0.05, ANOVA. The method, then:
as §1, §2

Turning to `NC[C@H]1O[C@H](O[C@H]2[C@H](O)[C@@H](O[C@H]3O[C@H](CO)[C@@H](O)[C@H](N)[C@H]3O)[C@H](N)C[C@@H]2N)[C@H](N)C[C@@H]1O` [tobramycin], the “gem localization in treated compared to untreated iPS-WT cells” value in the assay with iPS-WT cells is on record as “no significant increase in gem localization”. Also, the “increase in SMN protein levels compared to untreated iPS-SMA cells” value in assay [1] came to 3 fold. Also, in the assay on iPS-SMA cells, the “number of gems in treated compared to untreated iPS-SMA cells” value is listed as “significant increase in the number of gems; also recorded: significantly increased the number of gems”.
Turning to `CCCC(CCC)C(=O)O` [valproic acid], the “gem localization in treated compared to untreated iPS-WT cells” value with iPS-WT cells is “no significant increase in gem localization”. Also, the “increase in SMN protein levels compared to untreated iPS-SMA cells” value in assay [1] came to 2 fold. Also, in the assay on iPS-SMA cells, the “number of gems in treated compared to untreated iPS-SMA cells” value was “significant increase in the number of gems; also recorded: significantly increased the number of gems”.
